Reference: ChEMBL document CHEMBL5465560, “Selectivity Literature for EUbOPEN Chemogenomic Library” (2024)

Legend:
[1] = target: Phosphorylase b kinase gamma catalytic chain, skeletal muscle/heart isoform (Homo sapiens) (UniProt Q16816); settings: at 10 µM
[2] = target: MAP kinase-activated protein kinase 3 (Homo sapiens) (UniProt Q16644); experiment: Selectivity interaction (Upstate Kinase Profiler service (Millipore)) EUB0000056c MAPKAPK3; settings: at 1 µM
[3] = target: Dual specificity protein kinase CLK2 (Homo sapiens, UniProt P49760); experiment: Selectivity interaction (ProQinase) EUB0000171b CLK2
[4] = target: T1, Mitogen-activated protein kinase kinase kinase 15 (Homo sapiens) (UniProt Q6ZN16); experiment: Selectivity interaction (KinomeScan (DiscoverX)) EUB0000618a MAP3K15; settings: at 10 µM
T1 sequence (whole entry): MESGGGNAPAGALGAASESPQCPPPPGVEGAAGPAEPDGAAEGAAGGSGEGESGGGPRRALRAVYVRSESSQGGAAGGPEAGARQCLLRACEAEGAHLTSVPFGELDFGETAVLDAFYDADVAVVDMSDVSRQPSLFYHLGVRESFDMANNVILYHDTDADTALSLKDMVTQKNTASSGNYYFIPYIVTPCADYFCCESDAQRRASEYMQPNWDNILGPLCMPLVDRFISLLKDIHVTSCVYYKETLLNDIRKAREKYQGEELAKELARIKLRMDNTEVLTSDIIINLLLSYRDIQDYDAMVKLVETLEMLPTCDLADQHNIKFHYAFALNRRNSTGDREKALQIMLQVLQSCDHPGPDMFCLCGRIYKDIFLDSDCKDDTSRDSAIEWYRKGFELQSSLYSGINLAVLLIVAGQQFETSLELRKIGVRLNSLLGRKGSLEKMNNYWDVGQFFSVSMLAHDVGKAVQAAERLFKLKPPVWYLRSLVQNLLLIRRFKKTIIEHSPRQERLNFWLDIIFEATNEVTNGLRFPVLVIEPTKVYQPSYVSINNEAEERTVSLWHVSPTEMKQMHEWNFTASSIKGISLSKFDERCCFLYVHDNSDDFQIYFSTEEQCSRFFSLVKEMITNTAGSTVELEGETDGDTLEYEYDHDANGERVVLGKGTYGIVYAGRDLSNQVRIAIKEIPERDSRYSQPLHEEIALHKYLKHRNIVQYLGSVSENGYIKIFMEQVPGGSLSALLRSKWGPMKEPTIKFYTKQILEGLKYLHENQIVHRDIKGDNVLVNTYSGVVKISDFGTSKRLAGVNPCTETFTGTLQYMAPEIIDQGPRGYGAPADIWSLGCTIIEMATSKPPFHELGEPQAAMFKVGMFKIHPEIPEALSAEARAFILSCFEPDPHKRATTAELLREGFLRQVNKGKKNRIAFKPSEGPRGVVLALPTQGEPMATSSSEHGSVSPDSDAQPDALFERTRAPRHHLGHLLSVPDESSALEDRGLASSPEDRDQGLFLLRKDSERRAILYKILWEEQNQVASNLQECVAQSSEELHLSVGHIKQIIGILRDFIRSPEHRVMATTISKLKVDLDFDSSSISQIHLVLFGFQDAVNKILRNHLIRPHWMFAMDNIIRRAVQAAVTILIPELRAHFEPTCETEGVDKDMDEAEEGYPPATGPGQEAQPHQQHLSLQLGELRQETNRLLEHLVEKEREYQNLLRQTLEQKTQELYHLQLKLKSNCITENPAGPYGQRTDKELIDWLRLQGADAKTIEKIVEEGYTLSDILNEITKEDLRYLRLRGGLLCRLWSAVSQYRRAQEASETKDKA

[5] = target: T2, Ephrin type-B receptor 1 (Homo sapiens) (UniProt P54762); experiment: Selectivity interaction (ActivX KiNativ screen (kinase selectivity in THP-1 cell lysates)) EUB0000639a EPHB1; type: subcellular; settings: lysate
T2 sequence (whole entry): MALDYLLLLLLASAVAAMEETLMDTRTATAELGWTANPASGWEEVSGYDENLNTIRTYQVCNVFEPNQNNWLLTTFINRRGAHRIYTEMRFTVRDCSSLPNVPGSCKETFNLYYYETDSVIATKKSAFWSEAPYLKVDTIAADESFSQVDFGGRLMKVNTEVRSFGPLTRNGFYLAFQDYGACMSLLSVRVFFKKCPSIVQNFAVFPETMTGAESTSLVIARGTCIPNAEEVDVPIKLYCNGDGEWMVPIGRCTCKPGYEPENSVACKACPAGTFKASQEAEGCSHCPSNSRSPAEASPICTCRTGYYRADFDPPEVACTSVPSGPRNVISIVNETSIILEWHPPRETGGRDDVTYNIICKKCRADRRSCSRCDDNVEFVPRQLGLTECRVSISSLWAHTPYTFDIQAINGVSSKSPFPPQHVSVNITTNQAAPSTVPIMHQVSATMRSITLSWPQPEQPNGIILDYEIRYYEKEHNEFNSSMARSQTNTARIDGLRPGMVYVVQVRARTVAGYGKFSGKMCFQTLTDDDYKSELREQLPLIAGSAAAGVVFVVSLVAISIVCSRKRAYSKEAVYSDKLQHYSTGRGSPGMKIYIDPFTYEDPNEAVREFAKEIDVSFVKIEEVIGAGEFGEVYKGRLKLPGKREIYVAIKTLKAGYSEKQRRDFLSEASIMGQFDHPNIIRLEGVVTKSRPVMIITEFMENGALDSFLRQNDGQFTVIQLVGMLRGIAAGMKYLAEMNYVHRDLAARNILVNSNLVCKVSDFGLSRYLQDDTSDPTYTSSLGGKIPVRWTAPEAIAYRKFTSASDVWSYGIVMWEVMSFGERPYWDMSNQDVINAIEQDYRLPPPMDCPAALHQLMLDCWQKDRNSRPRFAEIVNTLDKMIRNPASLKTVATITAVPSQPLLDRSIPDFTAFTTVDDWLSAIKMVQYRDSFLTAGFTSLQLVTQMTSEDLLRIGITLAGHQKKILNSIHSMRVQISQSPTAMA

[6] = target: Calcium/calmodulin-dependent protein kinase type 1D (Homo sapiens) (UniProt Q8IU85); experiment: Selectivity interaction (KinomeScan (DiscoverX)) EUB0000092b CAMK1D; settings: at 10 µM
[7] = target: Serine/threonine-protein kinase Nek4 (Homo sapiens) (UniProt P51957); experiment: Selectivity interaction (Ambit KINOMEscan and KiNATiv profiling in Jurkat cells) EUB0000090b NEK4; type: cell-based; settings: at 1 µM
Sequence of Serine/threonine-protein kinase Nek4 (Homo sapiens) (P51957 whole entry, looked up): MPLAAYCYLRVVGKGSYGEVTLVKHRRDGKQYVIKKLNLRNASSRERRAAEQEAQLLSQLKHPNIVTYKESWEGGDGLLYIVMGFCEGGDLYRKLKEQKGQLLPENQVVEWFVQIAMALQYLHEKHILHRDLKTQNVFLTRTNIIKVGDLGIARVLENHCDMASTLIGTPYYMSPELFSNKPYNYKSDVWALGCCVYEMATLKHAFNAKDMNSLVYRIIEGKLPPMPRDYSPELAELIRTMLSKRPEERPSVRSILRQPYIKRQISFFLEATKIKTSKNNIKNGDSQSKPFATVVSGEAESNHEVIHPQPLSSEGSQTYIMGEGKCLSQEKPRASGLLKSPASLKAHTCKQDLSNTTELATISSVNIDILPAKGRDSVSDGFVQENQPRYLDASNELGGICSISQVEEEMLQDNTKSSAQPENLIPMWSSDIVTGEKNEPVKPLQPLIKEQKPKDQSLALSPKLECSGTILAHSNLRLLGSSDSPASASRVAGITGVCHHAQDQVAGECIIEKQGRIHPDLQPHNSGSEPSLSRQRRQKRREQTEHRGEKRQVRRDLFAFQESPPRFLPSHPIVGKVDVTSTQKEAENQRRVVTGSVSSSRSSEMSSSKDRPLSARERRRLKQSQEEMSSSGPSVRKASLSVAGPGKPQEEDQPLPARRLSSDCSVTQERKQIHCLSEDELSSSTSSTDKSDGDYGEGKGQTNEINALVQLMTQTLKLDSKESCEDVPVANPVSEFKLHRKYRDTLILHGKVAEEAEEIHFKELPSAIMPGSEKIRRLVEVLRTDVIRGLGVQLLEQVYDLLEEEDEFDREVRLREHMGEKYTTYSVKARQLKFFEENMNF

Sequence of Dual specificity protein kinase CLK2 (P49760 whole entry, looked up): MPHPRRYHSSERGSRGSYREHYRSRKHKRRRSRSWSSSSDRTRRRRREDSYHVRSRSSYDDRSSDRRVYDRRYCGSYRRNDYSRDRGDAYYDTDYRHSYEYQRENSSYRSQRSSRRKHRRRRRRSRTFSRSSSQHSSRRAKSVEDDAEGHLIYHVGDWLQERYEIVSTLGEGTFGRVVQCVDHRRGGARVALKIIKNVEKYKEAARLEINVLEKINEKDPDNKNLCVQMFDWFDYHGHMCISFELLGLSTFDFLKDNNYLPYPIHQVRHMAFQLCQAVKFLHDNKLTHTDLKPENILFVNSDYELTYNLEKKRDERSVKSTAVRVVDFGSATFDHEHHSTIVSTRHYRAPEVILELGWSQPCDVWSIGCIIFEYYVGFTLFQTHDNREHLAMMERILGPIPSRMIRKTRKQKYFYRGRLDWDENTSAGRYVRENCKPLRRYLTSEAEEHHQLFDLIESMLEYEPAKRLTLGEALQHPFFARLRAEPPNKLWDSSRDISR
Sequence of MAP kinase-activated protein kinase 3 (Homo sapiens) (Q16644 whole entry, looked up): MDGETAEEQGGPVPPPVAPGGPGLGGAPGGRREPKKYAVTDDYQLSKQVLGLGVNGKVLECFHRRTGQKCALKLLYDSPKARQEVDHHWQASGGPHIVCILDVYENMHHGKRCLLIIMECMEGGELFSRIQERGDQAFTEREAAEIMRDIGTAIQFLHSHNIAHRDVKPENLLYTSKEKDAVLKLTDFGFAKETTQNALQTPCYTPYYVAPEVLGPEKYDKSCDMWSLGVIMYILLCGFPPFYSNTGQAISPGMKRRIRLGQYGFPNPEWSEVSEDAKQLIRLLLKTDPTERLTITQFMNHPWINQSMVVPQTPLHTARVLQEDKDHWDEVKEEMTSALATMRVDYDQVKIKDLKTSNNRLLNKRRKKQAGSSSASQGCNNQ
Sequence of Phosphorylase b kinase gamma catalytic chain, skeletal muscle/heart isoform (Homo sapiens) (Q16816 whole entry, looked up, canonical isoform): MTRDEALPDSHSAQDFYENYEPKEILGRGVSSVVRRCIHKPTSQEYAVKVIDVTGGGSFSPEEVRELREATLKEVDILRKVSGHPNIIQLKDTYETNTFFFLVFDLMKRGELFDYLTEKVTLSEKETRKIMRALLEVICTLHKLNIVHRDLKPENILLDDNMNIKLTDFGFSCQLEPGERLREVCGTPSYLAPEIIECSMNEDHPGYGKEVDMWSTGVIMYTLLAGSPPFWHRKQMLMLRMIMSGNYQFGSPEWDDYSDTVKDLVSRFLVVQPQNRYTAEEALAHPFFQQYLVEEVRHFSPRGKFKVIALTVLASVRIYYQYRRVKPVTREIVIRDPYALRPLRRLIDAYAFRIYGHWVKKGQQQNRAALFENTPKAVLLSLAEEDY
Sequence of Calcium/calmodulin-dependent protein kinase type 1D (Homo sapiens) (Q8IU85 whole entry, looked up): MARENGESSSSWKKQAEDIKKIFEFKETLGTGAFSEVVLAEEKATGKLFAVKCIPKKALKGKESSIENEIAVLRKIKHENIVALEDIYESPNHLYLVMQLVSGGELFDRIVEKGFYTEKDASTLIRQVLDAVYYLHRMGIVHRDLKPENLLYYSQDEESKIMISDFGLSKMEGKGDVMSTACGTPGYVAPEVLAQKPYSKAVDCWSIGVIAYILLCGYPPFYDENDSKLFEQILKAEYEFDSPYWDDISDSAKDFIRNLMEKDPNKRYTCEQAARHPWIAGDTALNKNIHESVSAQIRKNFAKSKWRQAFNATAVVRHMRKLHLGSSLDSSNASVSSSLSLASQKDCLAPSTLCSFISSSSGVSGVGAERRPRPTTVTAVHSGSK

SMILES: Cc1cc([C@@H](C)Nc2ccccc2C(=O)O)c2nc(N3CCOCC3)cc(=O)n2c1 [AZD-6482]
- % of control [1]: 93%

SMILES: Cc1ccc(-c2ccc3c(ccc4sc5c(c43)NC[C@@H](C)NC5=O)n2)cn1
- % of inhibition [2]: 89%

SMILES: C=CC(=O)Nc1cccc(C(=O)Nc2ccc(Nc3cc(-c4[nH]c(SC)nc4C)ccn3)cc2)c1
- % of control ([3]; at 1 µM): 81%
- % of control ([3]; at 5 µM): 51%

SMILES: O[C@H]1CC[C@H](Nc2ncc3nc(Nc4c(F)cc(F)cc4F)n([C@H]4CCOC4)c3n2)CC1
- % of control [4]: 100%

SMILES: CC[C@@H]1[C@H](F)C(=O)N[C@@H]1COc1nccc2cc(C(N)=O)c(OC)cc12 [ZIMLOVISERTIB]
- % of inhibition ([5]; at 0.01 µM): -7%
- % of inhibition ([5]; at 0.04 µM): -38.7%
- % of inhibition ([5]; at 0.2 µM): -5.5%
- % of inhibition ([5]; at 1 µM): -14.3%
- % of inhibition ([5]; at 5 µM): -6.5%

SMILES: CCC(=O)N1CCN(c2ccc(-n3c(=O)ccc4cnc5ccc(-c6cnc7ccccc7c6)cc5c43)cc2C(F)(F)F)CC1
- % of control [6]: 88%

SMILES: CN(C)C/C=C/C(=O)Nc1ccc(C(=O)N2CCCC(Nc3ncc(Cl)c(-c4c[nH]c5ccccc45)n3)C2)cc1 (configuration not stated)
- % of control [7]: 100%
